This passage reports IC50 and melting point results from patent US20240262833A1, “FUSED HETEROCYCLIC DERIVATIVES AS NEGATIVE ALLOSTERIC MODULATORS OF MGLU7 RECEPTOR” (Addex Pharma S.A., priority 2021, published 2024).

pIC50: −log10 of the molar value.

The target in series [1] is T1, human metabotropic glutamate 7 receptor (hmGlu7) (Homo sapiens, UniProt Q14831).
T1 construct: expressed in transfected cells
Put plainly: mGlu7 assay on HEK-expressing human mGlu7: fluorescent cell based Ca2+ mobilization assay (FLIPR), inhibition of EC80 L-AP4 response. The note with it: HEK-293 cells expressing hmGlu7; EC80 L-AP4 stimulation; mean of at least three independent experiments in duplicate; read-out: Ca2+ Flux (mean IC50). Summed up:
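HEK293 cells stably expressing hmGlu7 with a calcium-redirecting G protein were Fluo4-AM-loaded and assayed at pH 7.4 in HEPES buffer. Compounds were monitored for 180 s for agonism, then cells were challenged with EC80 L-AP4 for 110 s. IC50 was obtained from four-parameter fits, as the mean of ≥3 experiments run in duplicate.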

T1 sequence (Q14831 35-922 isoform Q14831-2): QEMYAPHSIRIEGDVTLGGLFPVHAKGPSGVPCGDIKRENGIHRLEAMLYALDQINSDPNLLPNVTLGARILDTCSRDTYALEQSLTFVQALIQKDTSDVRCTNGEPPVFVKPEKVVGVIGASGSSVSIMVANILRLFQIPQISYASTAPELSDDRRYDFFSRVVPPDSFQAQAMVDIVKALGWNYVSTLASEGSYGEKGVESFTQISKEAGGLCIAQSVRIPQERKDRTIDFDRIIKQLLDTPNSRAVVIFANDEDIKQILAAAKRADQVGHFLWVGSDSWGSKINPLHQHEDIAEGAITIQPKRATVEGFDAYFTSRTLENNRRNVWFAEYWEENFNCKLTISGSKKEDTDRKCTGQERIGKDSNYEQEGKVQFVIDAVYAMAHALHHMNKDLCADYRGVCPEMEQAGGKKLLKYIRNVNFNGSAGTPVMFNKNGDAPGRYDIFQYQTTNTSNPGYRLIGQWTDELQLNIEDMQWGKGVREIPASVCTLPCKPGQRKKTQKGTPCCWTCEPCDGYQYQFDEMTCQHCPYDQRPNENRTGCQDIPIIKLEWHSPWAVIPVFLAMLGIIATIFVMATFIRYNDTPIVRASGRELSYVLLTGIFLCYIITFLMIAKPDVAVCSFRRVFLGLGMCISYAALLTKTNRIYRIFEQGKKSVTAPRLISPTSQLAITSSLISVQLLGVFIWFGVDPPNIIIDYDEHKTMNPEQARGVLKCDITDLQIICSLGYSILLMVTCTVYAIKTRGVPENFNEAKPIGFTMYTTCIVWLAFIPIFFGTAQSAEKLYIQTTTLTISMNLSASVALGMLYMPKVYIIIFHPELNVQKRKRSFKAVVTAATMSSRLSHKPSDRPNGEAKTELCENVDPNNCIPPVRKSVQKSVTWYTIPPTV

Regarding `Cc1c2cnn(-c3ccccc3)c(=O)c2c(C)n1-c1cccc(O)c1` [1-51, 6-(3-Hydroxyphenyl)-5,7-dimethyl-2-phenyl-2,6-dihydro-1H-pyrrolo[3,4-d]pyridazin-1-one], the melting point (in general, the temperature of the solid-liquid transition) was 252 to 254 °C. Also, the pIC50 (commonly the negative decadic logarithm of the IC50, by convention in mol/L) in series [1] is 5.00 to 6.00.
The molecule `COc1cccc(-n2c(C)c3cnn(-c4ccc(O)nc4)c(=O)c3c2C)c1` [1-131, 2-(6-Hydroxypyridin-3-yl)-6-(3-methoxyphenyl)-5,7-dimethyl-2,6-dihydro-1H-pyrrolo[3,4-d]pyridazin-1-one] gave a melting point of 207 to 209 °C. For the same molecule, in series [1], the pIC50 was 6.00 to 7.00.
`COc1cccc(-n2c(C)c3cnn(-c4cc(OC)ccn4)c(=O)c3c2C)c1` [1-123] returned a melting point of 95 to 97 °C. Further, in series [1], the negative logarithm of the IC50 (pIC50) is 5.00 to 6.00.
For `CC(=O)c1cccc(-n2c(C)c3cnn(-c4ccccc4)c(=O)c3c2C)c1` [1-36, 6-(3-Acetylphenyl)-5,7-dimethyl-2-phenyl-2,6-dihydro-1H-pyrrolo [3,4-d]pyridazin-1-one], the melting point was in the range of 202 to 204 °C. In series [1], the pIC50 is 6.00 to 7.00.
In the same order, the values of `Cc1c2cnn(-c3ccccn3)c(=O)c2c(C)n1-c1cccc(-n2nccn2)c1` [1-199, 6-(3-(2H-1,2,3-Triazol-2-yl)phenyl)-5,7-dimethyl-2-(pyridin-2-yl)-2,6-dihydro-1H-pyrrolo[3,4-d]pyridazin-1-one] are 173 °C and 6.00 to 7.00.
Molecule `COc1cccc(-n2c(C)c3cnn(-c4ccc(C(C)O)cc4)c(=O)c3c2C)c1` (stereo not drawn) [1-138, 2-(4-(1-Hydroxyethyl)phenyl)-6-(3-methoxyphenyl)-5,7-dimethyl-2,6-dihydro-1H-pyrrolo[3,4-d]pyridazin-1-one] had a melting point of 192 to 195 °C. Besides, the pIC50 in series [1] was over 7.00.
Take `Cc1c2cnn(-c3ccccc3)c(=O)c2c(C)n1-c1cccc(N2CCCC2)c1` [1-101, 5,7-Dimethyl-2-phenyl-6-(3-(pyrrolidin-1-yl)phenyl)-2,6-dihydro-1H-pyrrolo[3,4-d]pyridazin-1-one]: the melting point lay within 228 to 229 °C. The negative-log IC50 (pIC50) in series [1] is 6.00 to 7.00.
Consider `COc1cccc(-n2c(C)c3cnn(-c4ccc(C(C)(C)O)cc4)c(=O)c3c2C)c1` [1-135, 2-(4-(2-Hydroxypropan-2-yl)phenyl)-6-(3-methoxyphenyl)-5,7-dimethyl-2,6-dihydro-1H-pyrrolo[3,4-d]pyridazin-1-one], for which the melting point lay in the range of 103 to 108 °C. The pIC50 in series [1] is over 7.00.
The corresponding values for `COc1cccc(-n2c(C)c3cnn(-c4ccc(C#N)cc4)c(=O)c3c2C)c1` [1-126] are 97 to 99 °C and 6.00 to 7.00.
Molecule `COc1ccccc1-n1ncc2c(C)n(-c3ccc(C)cc3)c(C)c2c1=O` [1-2, 2-(2-Methoxyphenyl)-5,7-dimethyl-6-p-tolyl-2,6-dihydro-1H-pyrrolo[3,4-d]pyridazin-1-one] showed a melting point of 202 °C. The pIC50 in series [1] was 6.00 to 7.00.
The corresponding values for `COCCNc1cccc(-n2c(C)c3cnn(-c4ccccc4)c(=O)c3c2C)c1` [1-43, 6-(3-(2-Methoxyethylamino)phenyl)-5,7-dimethyl-2-phenyl-2,6-dihydro-1H-pyrrolo[3,4-d]pyridazin-1-one] are 116 to 119 °C and 6.00 to 7.00.
In turn, `CNCc1ccc(-n2ncc3c(C)n(-c4cccc(OC)c4)c(C)c3c2=O)cc1` [1-109, 6-(3-Methoxyphenyl)-5,7-dimethyl-2-(4-((methylamino)methyl)phenyl)-2,6-dihydro-1H-pyrrolo[3,4-d]pyridazin-1-one] had a melting point of 150 to 154 °C. Moreover, the pIC50 in series [1] was 6.00 to 7.00.
Turning to `CCOC(=O)c1cccc(-n2c(C)c3cnn(-c4ccccn4)c(=O)c3c2C)c1` [1-133], the melting point was in the range of 86 to 90 °C. Further, the pIC50 in series [1] is 6.00 to 7.00.
Turning to `COc1cccc(-n2c(C)c3cnn(-c4ccc(CN)cc4)c(=O)c3c2C)c1` [1-88, 2-(4-(Aminomethyl)phenyl)-6-(3-methoxyphenyl)-5,7-dimethyl-2,6-dihydro-1H-pyrrolo[3,4-d]pyridazin-1-one], the melting point lay within 145 to 155 °C. Further, in series [1], the negative-log IC50 (pIC50) was 6.00 to 7.00.
In the same order, the values of `O=c1c2cn(-c3cccc(N4CCC4)c3)cc2cnn1-c1ccccn1` [1-188, 6-(3-(Azetidin-1-yl)phenyl)-2-(pyridin-2-yl)-2,6-dihydro-1H-pyrrolo[3,4-d]pyridazin-1-one] are 190 to 192 °C and 5.00 to 6.00.
For the molecule `Cc1c2cnn(-c3ccc(CCF)cc3)c(=O)c2c(C)n1-c1cccc(N2CCC2)c1` [1-189, 6-(3-(Azetidin-1-yl)phenyl)-2-(4-(2-fluoroethyl)phenyl)-5,7-dimethyl-2,6-dihydro-1H-pyrrolo[3,4-d]pyridazin-1-one], the pIC50 in series [1] was over 7.00.
As to `CCOc1cccc(-n2ncc3c(C)n(-c4cccc(OC)c4)c(C)c3c2=O)c1` [1-144], in series [1], the pIC50 was over 7.00.
In the case of `COc1cccc(-n2c(C)c3cnn(-c4ccccn4)c(=O)c3c2C)c1` [1-44], in series [1], the pIC50 was 6.00 to 7.00.
With `Cc1c2cnn(-c3cccnc3)c(=O)c2c(C)n1-c1ccccc1` [1-9], the negative logarithm of the IC50 (pIC50) in series [1] is 6.00 to 7.00.
For the molecule `Cc1cccc(-n2c(C)c3cnn(-c4cccnc4)c(=O)c3c2C)c1` [1-40], the pIC50 in series [1] was 6.00 to 7.00.
Same read-out and setting: to `Cc1cccc(-n2ncc3c(C)n(-c4cccc(N5CCC5)c4)c(C)c3c2=O)n1` [1-154] belongs 6.00 to 7.00; to `Cc1c2cnn(-c3ncc(F)cn3)c(=O)c2c(C)n1-c1cc(F)cc(N2CCC2)c1` [1-208], over 7.00.
For the molecule `Cc1c2cnn(-c3ccc(S(N)(=O)=O)cc3)c(=O)c2c(C)n1-c1cccc(N2CCOCC2)c1` [1-68], the negative logarithm of the IC50 (pIC50) in series [1] is 6.00 to 7.00.
For `COc1ccc(-n2ncc3c(C)n(-c4cccc(OC)c4)c(C)c3c2=O)nc1` [1-83], in series [1], the negative-log IC50 (pIC50) is 6.00 to 7.00.
As for `Cc1cncc(-n2ncc3c(C)n(-c4cccc(N5CCC5)c4)c(C)c3c2=O)c1` [1-158], the negative-log IC50 (pIC50) in series [1] was over 7.00.
Regarding `Cc1c(OC2CC2)cccc1-n1c(C)c2cnn(-c3ccc(N4CCOCC4)cc3)c(=O)c2c1C` [1-221], in series [1], the negative-log IC50 (pIC50) is 5.00 to 6.00.
As for `COc1cccc(-n2c(C)c3cnn(-c4ccc(S(N)(=O)=O)cc4)c(=O)c3c2C)c1` [1-120], the pIC50 in series [1] is over 7.00.
`Cc1ccccc1-n1c(C)c2cnn(-c3ccccc3)c(=O)c2c1C` [1-7]: in series [1], the negative logarithm of the IC50 (pIC50) is 6.00 to 7.00.
In the case of `COc1cccc(-n2c(C)c3cnn(-c4ccc(C(=O)N(C)C)cc4)c(=O)c3c2C)c1` [1-75], the pIC50 in series [1] is 6.00 to 7.00.
For `CCc1c2cnn(-c3ccccn3)c(=O)c2c(C)n1-c1cccc(OC)c1` [1-140], the pIC50 in series [1] is 5.00 to 6.00.
With `Cc1c2cnn(-c3ccccn3)c(=O)c2c(C)n1-c1ccc(C2CC2)cc1` [1-186], the pIC50 in series [1] is 6.00 to 7.00.
As for `COCCNc1ccc(-n2c(C)c3cnn(-c4ccccc4)c(=O)c3c2C)cc1` [1-42], in series [1], the negative-log IC50 (pIC50) was 5.00 to 6.00.
In the case of `Cc1c2cnn(-c3ccccn3)c(=O)c2c(C)n1-c1cccc(C#N)c1` [1-54], the negative logarithm of the IC50 (pIC50) in series [1] is 5.00 to 6.00.
Consider `COc1cc(F)ccc1-n1c(C)c2cnn(-c3ccccn3)c(=O)c2c1C` [1-191], for which the pIC50 in series [1] was 5.00 to 6.00.
`COc1cccc(-n2c(C)c3cnn(-c4cccc(C(=O)N(C)C)c4)c(=O)c3c2C)c1` [1-112]: the negative-log IC50 (pIC50) in series [1] is 6.00 to 7.00.
On the same count and under the same terms, to `COc1cccc(-n2c(C)c3cnn(-c4ccnc(OC)c4)c(=O)c3c2C)c1` [1-121] belongs over 7.00; to `COc1cccc(-n2c(C)c3cnn(-c4ccc(C(F)(F)F)cn4)c(=O)c3c2C)c1` [1-122], 6.00 to 7.00.
As for `COc1cccc(-n2c(C)c3cnn(-c4cccc(C(C)=O)c4)c(=O)c3c2C)c1` [1-147], the negative-log IC50 (pIC50) in series [1] is 6.00 to 7.00.
For `COc1cccc(-n2c(C)c3cnn(-c4cccc(CNC(C)=O)c4)c(=O)c3c2C)c1` [1-115], the negative-log IC50 (pIC50) in series [1] is 6.00 to 7.00.
On to `COc1cccc(-n2c(C)c3cnn(-c4cccnc4)c(=O)c3c2C)c1` [1-41], for which, in series [1], the negative-log IC50 (pIC50) is 6.00 to 7.00.
Consider `CCc1cccc(-n2c(C)c3cnn(-c4ccccn4)c(=O)c3c2C)c1` [1-85], for which, in series [1], the pIC50 is 6.00 to 7.00.
Regarding `COCc1ccc(-n2ncc3c(C)n(-c4ccccc4)c(C)c3c2=O)cc1` [1-38], the pIC50 in series [1] is over 7.00.
Regarding `Cc1c2cnn(-c3cccc(F)c3)c(=O)c2c(C)n1-c1ccccc1` [1-10], the pIC50 in series [1] is 6.00 to 7.00.
Regarding `Cc1c2cnn(-c3ccccn3)c(=O)c2c(C)n1-c1cccc(OC(F)F)c1` [1-202], the pIC50 in series [1] is over 7.00.
As for `Cc1cc(-n2ncc3c(C)n(-c4cccc(N5CCC5)c4)c(C)c3c2=O)ccn1` [1-182], in series [1], the negative-log IC50 (pIC50) is over 7.00.
Same read-out and setting: the figure for `Cc1c2cnn(-c3ccccn3)c(=O)c2c(C)n1-c1cc(F)cc(N2CCC2)c1` [1-195] is over 7.00; for `Cc1c2cnn(-c3ccccn3)c(=O)c2c(C)n1-c1ccc2ccn(C)c2c1` [1-96, 5,7-Dimethyl-6-(1-methyl-1H-indol-6-yl)-2-(pyridin-2-yl)-2,6-dihydro-1H-pyrrolo[3,4-d]pyridazin-1-one] it is 5.00 to 6.00; for `COc1cccc(-n2c(C)c3cnn(-c4cccc(CO)c4)c(=O)c3c2C)c1` [1-114] it is 6.00 to 7.00.
Regarding `Cc1c2cnn(-c3ccccn3)c(=O)c2c(C)n1-c1cccc(N2CCOCC2)c1` [1-90], the pIC50 in series [1] is 5.00 to 6.00.
Regarding `Cc1c2cnn(-c3ccc(F)cn3)c(=O)c2c(C)n1-c1cccc(N2CCC2)c1` [1-173], the negative logarithm of the IC50 (pIC50) in series [1] was over 7.00.
In the case of `COc1ccc(-n2c(C)c3cnn(-c4cccnc4)c(=O)c3c2C)cc1` [1-46], the pIC50 in series [1] was 6.00 to 7.00.
Regarding `Cc1ccc(-n2ncc3c(C)n(-c4cccc(N5CCC5)c4)c(C)c3c2=O)nc1` [1-155], the pIC50 in series [1] is over 7.00.
Take `Cc1c2cnn(-c3cccnc3)c(=O)c2c(C)n1-c1cccc(N2CCC2)c1` [1-164]: in series [1], the pIC50 was over 7.00.
On the same count and under the same terms, to `Cc1c2cnn(-c3ccccn3)c(=O)c2c(C)n1-c1cccc(OC2CC2)c1F` [1-235] belongs 6.00 to 7.00.
